Here are results for 9 molecules from patent US20100234400A1, “COMPOUNDS THAT MAINTAIN PLURIPOTENCY OF EMBRYONIC STEM CELLS” (IRM LLC, priority 2005, published 2010).

The assay relates to Mouse embryonic stem cells. The assay is described as follows: Mouse ES cells keep pluripotency under differentiation medium (DM). The class given is cell-based. Particulars: Embryonic stem cell, 144 h, measured by maintenance of GFP expression and colony morphology, differentiation medium (BM+0.3 μM RA or DMEM, 20% FBS), 3 + 3 days incubation. From the text: Materials used for ES cell maintenance, and examples 4 & 5, infra, include: Oct4-GFP mES cells (feeder layer dependent cells); mES R1 cells (feeder layer independent cells); DMEM (GIBCO, 11965-084); Kouckout DMEM (KO DMEM) (GIBCO, 10829-018); DMEM/F12 (GIBCO, 11330-032); Fetal Bovine Serum (FBS) (GIBCO, 26140-079); Knockout Serum Replacer (KO-SR), (GIBCO, 10828-028); B-27 Serum-free Supplement (50X), (GIBCO017504-044); N-2 Supplement (100X) (GIBCO, 17502-048); LIF (10^6 units) (Chemicon, ESG1106); L-Glutamine (GIBCO, 25030-081); Non-essential amino acids (GIBCO, 11140-050); 2-Mercaptoethanol (1000X), (GIBCO, 21985-023); 0.05% Trypsin-EDTA (GIBCO, 25300-054); 0.1% gelatin solution (Stemcell tech., 07903); Basal medium (BM): KO DMEM, 15% KO-SR, 1X L-glutamine, 1X non-essential amino acid, 1×2-mercaptoethanol; and Growth medium (GM): Basal medium+10^3 unit LIF.
DM induced by retinoic acid (RA): BM+0.3 μM RA, DM induced by FBS: DMEM, 20% FBS. Ninety-six well plates are coated with 0.1% gelatin solution at 37° C. overnight. The gelatin solution is removed by aspiration. Mouse embryonic stem cells are plated on gelatin-coated plates at 10^4 cells/50 μl GM/well. After overnight incubation, the medium is changed to DM and 3 μM of a compound of the invention is added to each well. After 3 days incubation, the medium is replaced with fresh medium and compound. After a further 3 days, the cells are fixed and assayed with pluripotent markers expression and colony morphology. An effective concentration is measured by the maintenance of GFP expression and colony morphology. A list of effective concentrations for various compounds of the invention is disclosed in table 3, infra
What is called minimal effective concentration is the lowest level tested that produced the effect sought. In the case of `CCNc1ncc2c(n1)N(C)C(=O)N(c1cc(NC(=O)c3cccc(C(F)(F)F)c3)ccc1C)C2` [N-[3-(7-Ethylamino-1-methyl-2-oxo-1,4-dihydro-2H-pyrimido[4,5-d]pyrimidin-3-yl)-4-methyl-phenyl]-3-trifluoromethyl-benzamide], the minimal effective concentration came to 10 µM.
To `CNc1ncc2c(n1)N(C)C(=O)N(c1cc(NC(=O)c3cccc(C(F)(F)F)c3)ccc1C)C2` [N-[4-Methyl-3-(1-methyl-7-methylamino-2-oxo-1,4-dihydro-2H-pyrimido[4,5-d]pyrimidin-3-yl)-phenyl]-3-trifluoromethyl-benzamide] belongs 3 µM; to `Cc1cc(Nc2ncc3c(n2)N(C)C(=O)N(c2cc(NC(=O)c4cccc(C(F)(F)F)c4)ccc2C)C3)n(C)n1` [N-{3-[7-(2,5-Dimethyl-2H-pyrazol-3-ylamino)-1-methyl-2-oxo-1,4-dihydro-2H-pyrimido[4,5-d]pyrimidin-3-yl]-4-methyl-phenyl}-3-trifluoromethyl-benzamide], 1 µM; to `Cc1cc(Nc2ncc3c(n2)N(C)C(=O)N(c2cc(NC(=O)c4cccc(C(F)(F)F)c4)ccc2C)C3)cc(C)n1` [N-{3-[7-(2,6-Dimethyl-pyridin-4-ylamino)-1-methyl-2-oxo-1,4-dihydro-2H-pyrimido[4,5-d]pyrimidin-3-yl]-4-methyl-phenyl}-3-trifluoromethyl-benzamide], 5 µM.
To `CCn1nccc1Nc1ncc2c(n1)N(C)C(=O)N(c1cc(NC(=O)c3cccc(C(F)(F)F)c3)ccc1C)C2` [N-{3-[7-(2-Ethyl-2H-pyrazol-3-ylamino)-1-methyl-2-oxo-1,4-dihydro-2H-pyrimido[4,5-d]pyrimidin-3-yl]-4-methyl-phenyl}-3-trifluoromethyl-benzamide] belongs 2 µM; to `Cc1ccc(NC(=O)c2cccc(C(F)(F)F)c2)cc1N1Cc2cnc(Nc3cccc(N)c3)nc2N(C)C1=O` [N-{3-[7-(3-Amino-phenylamino)-1-methyl-2-oxo-1,4-dihydro-2H-pyrimido[4,5-d]pyrimidin-3-yl]-4-methyl-phenyl}-3-trifluoromethyl-benzamide], 2 µM; to `Cc1ccc(NC(=O)c2cccc(C(F)(F)F)c2)cc1N1Cc2cnc(Nc3cccc(O)c3)nc2N(C)C1=O` [N-{3-[7-(3-Hydroxy-phenylamino)-1-methyl-2-oxo-1,4-dihydro-2H-pyrimido[4,5-d]pyrimidin-3-yl]-4-methyl-phenyl}-3-trifluoromethyl-benzamide], 1 µM.
To `Cc1ccc(NC(=O)c2cccc(C(F)(F)F)c2)cc1N1Cc2cnc(Nc3cccc(NS(C)(=O)=O)c3)nc2N(C)C1=O` [N-{3-[7-(3-Methanesulfonylamino-phenylamino)-1-methyl-2-oxo-1,4-dihydro-2H-pyrimido[4,5-d]pyrimidin-3-yl]-4-methyl-phenyl}-3-trifluoromethyl-benzamide] belongs 2 µM; to `Cc1ccc(NC(=O)c2cccc(C(F)(F)F)c2)cc1N1Cc2cnc(Nc3ccnn3C)nc2N(C)C1=O` [N-{4-Methyl-3-[1-methyl-7-(2-methyl-2H-pyrazol-3-ylamino)-2-oxo-1,4-dihydro-2H-pyrimido[4,5-d]pyrimidin-3-yl]-phenyl}-3-trifluoromethyl-benzamide], 1 µM.
